These results are taken from patent US20180326101A1, “COMPOUND AND PHARMACEUTICAL COMPOSITION FOR TARGETED DRUG DELIVERY” (SeeCure Taiwan Co., Ltd., priority 2017, published 2018).

In this assay the target is T1, XC transporter (Homo sapiens, UniProt Q9UPY5).
T1 construct: endogenous in cells; host or cells: U251 cell line
T1 sequence (Q9UPY5 1-501): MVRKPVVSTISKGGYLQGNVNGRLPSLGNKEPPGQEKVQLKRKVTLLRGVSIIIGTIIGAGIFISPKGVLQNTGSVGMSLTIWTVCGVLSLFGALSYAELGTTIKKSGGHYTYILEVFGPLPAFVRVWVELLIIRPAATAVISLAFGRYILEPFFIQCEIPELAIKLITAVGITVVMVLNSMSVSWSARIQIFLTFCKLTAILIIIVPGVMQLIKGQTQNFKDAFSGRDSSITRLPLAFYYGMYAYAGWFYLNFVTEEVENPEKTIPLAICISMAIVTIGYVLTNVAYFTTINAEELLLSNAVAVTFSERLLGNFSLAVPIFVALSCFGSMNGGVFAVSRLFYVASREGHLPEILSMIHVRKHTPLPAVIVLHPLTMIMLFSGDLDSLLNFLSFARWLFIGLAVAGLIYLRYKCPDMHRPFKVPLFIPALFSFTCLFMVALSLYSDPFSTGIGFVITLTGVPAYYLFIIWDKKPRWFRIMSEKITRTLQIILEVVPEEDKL
T1 sequence (P08195 1-529 partner): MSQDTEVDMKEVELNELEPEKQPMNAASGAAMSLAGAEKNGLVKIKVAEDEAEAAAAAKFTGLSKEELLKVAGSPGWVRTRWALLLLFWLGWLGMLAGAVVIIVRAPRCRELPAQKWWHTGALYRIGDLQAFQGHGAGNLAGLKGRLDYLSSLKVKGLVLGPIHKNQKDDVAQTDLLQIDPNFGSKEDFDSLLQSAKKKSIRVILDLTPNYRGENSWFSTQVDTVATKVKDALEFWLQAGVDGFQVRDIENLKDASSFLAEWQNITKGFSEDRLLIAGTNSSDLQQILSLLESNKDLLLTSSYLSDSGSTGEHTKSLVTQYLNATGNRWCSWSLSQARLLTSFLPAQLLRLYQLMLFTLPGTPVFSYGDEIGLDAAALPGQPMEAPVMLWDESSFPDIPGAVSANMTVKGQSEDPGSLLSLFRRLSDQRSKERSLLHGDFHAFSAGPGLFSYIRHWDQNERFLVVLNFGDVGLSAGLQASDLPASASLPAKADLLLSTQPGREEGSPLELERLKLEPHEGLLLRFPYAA
As to the kind of experiment: Blocking studies of cellular uptake with sulfasalazine (SAS) or cysteine. In kind it is cell-based. As to conditions: U251 cells, 2 hours incubation. On the procedure: The cellular uptake of the ^99mTc-SAC-A and the ^99mTc-SAC-B compounds were performed using an U251 cell line. The cells were planted onto tissue culture plates at a concentration of 350,000 cells per well for the uptake and blocking studies. The cells were cultured in Eagle's MEM with Earle's BSS (90%) and fetal bovine serum (10%) under standard culture conditions (37° C., 95% humidified air and 5% CO2). After seeding, the cells were incubated at 37° C. for 48 hours to allow for cell attachment and growth. After reaching approximately 70% confluency of cells, the cells are ready for use in the cellular uptake/blocking experiments.
Specifically, upon reaching 70% cell confluency, the growth media were aspirated and the cells were washed twice with phosphate buffered saline (PBS). Serum-free media and the ^99mTc-SAC-A compound or ^99mTc-SAC-B compound obtained above were respectfully added to the each of the wells for performing the cellular uptake experiment. For the blocking studies, the cells were pre-treated with 500 μM and 1000 μM of sulfasalazine (SAS; a XC transporter specific inhibitor) or 500 μM and 1000 μM of cysteine (a competitive inhibitor) for 30 minutes prior to the addition of the ^99mTc-SAC-A or ^99mTc-SAC-B compounds. […] After 2 hours, the cells in each of the wells are washed with PBS, the cells are then collected and its radioactivity were counted using a gamma counter. […]

As to `N[C@@H](CS[C@@H](CC(=O)O)C(=O)O)C(=O)O` [SAC-B], where the note is “500 μM and 1000 μM cysteine pre-treatment 30 min”, the “cellular uptake when blocking agent cysteine (competitive inhibitor) was added” value is “mostly inhibited”. Further, the “cellular uptake when blocking agent SAS (XC transporter specific inhibitor) was added” value (500 μM and 1000 μM sulfasalazine pre-treatment 30 min) is “mostly inhibited”.
